Assay results taken from patent publication US12060347B2 (BRISTOL-MYERS SQUIBB COMPANY, priority 2016, dated 2024).

Molecular target: T1, human PAR4 (Homo sapiens, UniProt Q96RI0)
T1 construct: expressed in transfected cells; host or cells: HEK293 PAR4 Clone 1.2A (BMS Arctic ID 383940)
T1 sequence (Q96RI0 18-385): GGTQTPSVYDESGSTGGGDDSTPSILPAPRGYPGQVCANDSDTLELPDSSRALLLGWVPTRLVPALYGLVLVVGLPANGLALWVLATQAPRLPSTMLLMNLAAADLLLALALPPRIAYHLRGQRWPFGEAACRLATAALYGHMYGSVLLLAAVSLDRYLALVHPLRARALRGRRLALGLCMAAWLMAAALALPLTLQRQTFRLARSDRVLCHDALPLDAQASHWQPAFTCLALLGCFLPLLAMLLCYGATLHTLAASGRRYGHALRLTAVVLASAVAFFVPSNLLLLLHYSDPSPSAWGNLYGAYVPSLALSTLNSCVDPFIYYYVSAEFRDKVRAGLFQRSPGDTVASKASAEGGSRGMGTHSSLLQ
Test: PAR4 FLIPR assay: antagonism of agonist-peptide-induced calcium mobilization in PAR4-expressing HEK293 cells
Format: cell-based
Conditions: H-Ala-Phe(4-F)-[…]NH2-induced intracellular calcium mobilization, 11-point curves

SMILES	IC50 [nM]
COCc1cnc2c(-c3nc4c(Cl)cc(OCCNS(=O)(=O)c5ccccc5F)cc4s3)cc(C)cc2n1 [Example 100, N-(2-(4-chloro-2-(2-(methoxymethyl)-7-methylquinoxalin-5-yl)benzo[d]thiazol-6-yloxy)ethyl)-2-fluorobenzenesulfonamide]	0.5
COc1cc(C(O)C(C)(C)C)c2nc(-c3cc(Cl)cc4nc(OC)cnc34)sc2c1 (centres unmarked) [Example 636, 1-(2-(7-chloro-2-methoxyquinoxalin-5-yl)-6-methoxybenzo[d]thiazol-4-yl)-2,2-dimethylpropan-1-ol]	3
COCc1cnc2c(-c3nc4c(C)c(F)c(OC)nc4s3)cc(C)cc2n1 [Example 763, 6-fluoro-5-methoxy-2-(2-(methoxymethyl)-7-methylquinoxalin-5-yl)-7-methylthiazolo[5,4-b]pyridine]	4
COCc1cnc2c(-c3nc4c(CO)cc(OC)nc4s3)cc(C)cc2n1 [Example 192, (5-methoxy-2-(2-(methoxymethyl)-7-methylquinoxalin-5-yl)thiazolo[5,4-b]pyridin-7-yl) methanol]	2.8
Cc1cc(-c2nc3cccc(NC(=O)OCC4CCCO4)c3s2)c2ncc(OC(F)F)nc2c1 (centres unmarked) [Example 22, (Tetrahydrofuran-2-yl)methyl (2-(2-(difluoromethoxy)-7-methylquinoxalin-5-yl)benzo[d]thiazol-7-yl)carbamate]	1.8
COc1cccc2sc(-c3cc(C)cc4nc(OC(F)F)cnc34)nc12 [Example 51, 2-(2-(difluoromethoxy)-7-methylquinoxalin-5-yl)-4-methoxybenzo[d]thiazole]	180
COc1cnc2c(-c3nc4cc(F)c(O[C@@H](C)[C@@H](C)OC(=O)Nc5cnc(OCCC(C)(C)O)nc5)nc4s3)cc(C)cc2n1 [Example 730, (2R,3S)-3-((6-fluoro-2-(2-methoxy-7-methylquinoxalin-5-yl)thiazolo[5,4-b]pyridin-5-yl)oxy)butan-2-yl (2-(3-hydroxy-3-methylbutoxy)pyrimidin-5-yl)carbamate]	13
COCc1cnc2c(-c3nc4c(C)cc(OC)cc4s3)cc(C)cc2c1OC [Example 190, 6-methoxy-2-(4-methoxy-3-(methoxymethyl)-6-methylquinolin-8-yl)-4-methylbenzo[d]thiazole]	1700
COCc1cnc2c(-c3nc4c(Cl)cc(OCCNS(C)(=O)=O)cc4s3)cc(C)cc2n1 [Example 98, N-(2-(4-chloro-2-(2-(methoxymethyl)-7-methylquinoxalin-5-yl)benzo[d]thiazol-6-yloxy)ethyl)methanesulfonamide]	0.3
COCc1cnc2c(-c3nc4c(Cl)cc(OC)cc4s3)cc(C)cc2n1 [Example 93, 4-chloro-6-methoxy-2-(2-(methoxymethyl)-7-methylquinoxalin-5-yl)benzo[d]thiazole]	0.3
COc1cnc2c(-c3nc4c(Cl)c(F)c(OC)cc4s3)cc(CO)cc2n1 [Example 218, (8-(4-chloro-5-fluoro-6-methoxybenzo[d]thiazol-2-yl)-3-methoxyquinoxalin-6-yl)methanol]	2.5
COc1cnc2c(-c3nc4c(F)c(F)c(OCCNS(=O)(=O)c5cccc(F)c5)cc4s3)cc(C)cc2n1 [Example 316, N-(2-((4,5-difluoro-2-(2-methoxy-7-methylquinoxalin-5-yl)benzo[d]thiazol-6-yl)oxy)ethyl)-3-fluorobenzenesulfonamide]	4.9
CCOc1cc(C)c2nc(-c3cc(C)cc4nc(COC)cnc34)sc2c1 [Example 306]	1
COc1cnc2c(-c3nc4c(C(O)C(C)(C)C)cc(F)cc4s3)cc(C)cc2n1 (centres unmarked) [Example 806, 1-(6-fluoro-2-(2-methoxy-7-methylquinoxalin-5-yl)benzo[d]thiazol-4-yl)-2,2-dimethylpropan-1-ol]	6.6
COc1cnc2c(-c3nc4c(C(O)C(C)(C)C)c(F)c(OC)cc4s3)cc(C)cc2n1 (centres unmarked) [Example 632, 1-(5-fluoro-6-methoxy-2-(2-methoxy-7-methylquinoxalin-5-yl)benzo[d]thiazol-4-yl)-2,2-dimethylpropan-1-ol]	10
COCc1cnc2c(-c3nc4cc(C)c(OC)cc4s3)cc(C)cc2n1 [Example 276, 6-methoxy-2-(2-(methoxymethyl)-7-methylquinoxalin-5-yl)-5-methylbenzo[d]thiazole]	1.2

Further lines, results first:

IC50 [nM]	SMILES
2.1	COc1cnc2c(-c3nc4cc(F)c(OC[C@@H](C)OC(=O)Nc5ccc6c(ccn6C)c5)cc4s3)cc(C)cc2n1 [Example 356, (R)-1-((5-fluoro-2-(2-methoxy-7-methylquinoxalin-5-yl)benzo[d]thiazol-6-yl)oxy)propan-2-yl (1-methyl-1H-indol-5-yl)carbamate]
1.5	COc1cnc2c(-c3nc4cc(F)c(O[C@@H](C)[C@@H](C)OC(=O)Nc5cnc(C)nc5)cc4s3)cc(F)cc2c1 [Example 772, (2R,3S)-3-((5-fluoro-2-(6-fluoro-3-methoxyquinolin-8-yl)benzo[d]thiazol-6-yl)oxy)butan-2-yl (2-methylpyrimidin-5-yl)carbamate]
10	CCOc1cnc2c(-c3nc4cc(F)c(O[C@@H](C)[C@@H](C)OC(=O)Nc5cnc(CO)nc5)nc4s3)cc(C)cc2n1 [Example 816]
4.4	COc1cnc2c(-c3nc4cc(F)c(OC[C@@H](C)OC(=O)Nc5ccccc5)cc4s3)cc(C)cc2n1 [Example 411, (R)-1-((5-fluoro-2-(2-methoxy-7-methylquinoxalin-5-yl)benzo[d]thiazol-6-yl)oxy)propan-2-yl phenylcarbamate]
0.2	COc1cnc2c(-c3nc4cc(F)c(O[C@@H](C)[C@@H](C)OC(=O)Nc5cnc(C(=O)NC[C@H](C)O)nc5)cc4s3)cc(C)cc2n1 [Example 462, (2R,3S)-3-((5-fluoro-2-(2-methoxy-7-methylquinoxalin-5-yl)benzo[d]thiazol-6-yl)oxy)butan-2-yl (2-(((S)-2-hydroxypropyl)carbamoyl)pyrimidin-5-yl)carbamate]
6	COc1cnc2c(-c3nc4cc(F)c(O[C@@H](C)[C@@H](C)OC(=O)Nc5ccc(CCO)nc5)nc4s3)cc(Cl)cc2c1 [Example 781, (2R,3S)-3-((2-(6-chloro-3-methoxyquinolin-8-yl)-6-fluorothiazolo[5,4-b]pyridin-5-yl)oxy) butan-2-yl (6-(2-hydroxyethyl)pyridin-3-yl)carbamate]
2.9	COc1cnc2c(-c3nc4cc(F)c(O[C@@H](C)[C@@H](C)OC(=O)Nc5cnc(C)c(C)c5)cc4s3)cc(Cl)cc2c1 [Example 787, (2R,3S)-3-((2-(6-chloro-3-methoxyquinolin-8-yl)-5-fluorobenzo[d]thiazol-6-yl)oxy)butan-2-yl (5,6-dimethylpyridin-3-yl)carbamate]
7	COc1cnc2c(-c3nc4c(Cl)c(F)c(OC[C@@H](C)OC(=O)Nc5cncnc5)cc4s3)cc(C)cc2n1 [Example 591, (R)-1-((4-chloro-5-fluoro-2-(2-methoxy-7-methylquinoxalin-5-yl)benzo[d]thiazol-6-yl)oxy)propan-2-yl pyrimidin-5-ylcarbamate]
0.4	COc1cnc2c(-c3nc4cc(F)c(O[C@@H](C)[C@@H](C)OC(=O)Nc5cccnc5)nc4s3)cc(C)cc2n1 [Example 709, (2R,3S)-3-((6-fluoro-2-(2-methoxy-7-methylquinoxalin-5-yl)thiazolo[5,4-b]pyridin-5-yl)oxy)butan-2-yl pyridin-3-ylcarbamate]
0.9	COc1cnc2c(-c3nc4cc(F)c(OC[C@@H](C)OC(=O)Nc5ccc(OCC(F)(F)CO)nc5)nc4s3)cc(C)cc2n1 [Example 687, (R)-1-((6-fluoro-2-(2-methoxy-7-methylquinoxalin-5-yl)thiazolo[5,4-b]pyridin-5-yl)oxy) propan-2-yl (6-(2,2-difluoro-3-hydroxypropoxy)pyridin-3-yl)carbamate]
0.5	COc1cnc2c(-c3nc4c(C)cc(OCCOC(=O)Nc5ccc(C#N)nc5)cc4s3)cc(C)cc2n1 [Example 117, 2-((2-(2-methoxy-7-methylquinoxalin-5-yl)-4-methylbenzo[d]thiazol-6-yl)oxy)ethyl (6-cyanopyridin-3-yl)carbamate]
3.5	COc1cncc(NC(=O)O[C@H](C)[C@H](C)Oc2cc3sc(-c4cc(Cl)cc5cc(OC)cnc45)nc3c(Cl)c2F)c1 [Example 803, (2R,3S)-3-((4-chloro-2-(6-chloro-3-methoxyquinolin-8-yl)-5-fluorobenzo[d]thiazol-6-yl)oxy)butan-2-yl (5-methoxypyridin-3-yl)carbamate]
3.2	COc1cnc2c(-c3nc4cc(F)c(OC[C@@H](C)OC(=O)Nc5cnc(OC)nc5)cc4s3)cc(C)cc2n1 [Example 408, (R)-1-((5-fluoro-2-(2-methoxy-7-methylquinoxalin-5-yl)benzo[d]thiazol-6-yl)oxy)propan-2-yl (2-methoxypyrimidin-5-yl)carbamate]
1.9	COc1cnc2c(-c3nc4cc(F)c(O[C@@H](C)[C@@H](C)OC(=O)Nc5cncc(C#N)c5)cc4s3)cc(Cl)cc2n1 [Example 826, (2R,3S)-3-((2-(7-chloro-2-methoxyquinoxalin-5-yl)-5-fluorobenzo[d]thiazol-6-yl)oxy)butan-2-yl (5-cyanopyridin-3-yl)carbamate]
4.6	COc1cnc2c(-c3nc4c(F)c(F)c(OC)cc4s3)cc(C)cc2n1 [Example 278, 4,5-difluoro-6-methoxy-2-(2-methoxy-7-methylquinoxalin-5-yl)benzo[d]thiazole]
9	COCc1cnc2c(-c3nc4cc(F)c(OC)cc4s3)cc(C)cc2n1 [Example 277, 5-fluoro-6-methoxy-2-(2-(methoxymethyl)-7-methylquinoxalin-5-yl)benzo[d]thiazole]
